The results in this text go back to patent US20220403327A1, “CUSTOMIZABLE 3D CELL CULTURE SYSTEM COMPRISING HYDROGEL-EMBEDDED CELLS AND USES THEREOF” (POLYVALOR, LIMITED PARTNERSHIP, priority 2019, published 2022).

Common to all, as to assay type: cell-based
For one assay, the system named is breast cancer cells. Briefly: Drug screening test: tumor migration on plasma-treated PLA electrospun mat 3D cell culture model. The following applies: 0, 0.05, 0.1, 0.5, 1 and 2 μM in media; day 7 of cell culture; A1G7 hydrogel on fibroblast-seeded PLA mats; triplicate. As to the method: FIG. 11B is a graph showing the measurement of the number of tumor cells migrated to the surface of PLA mats at different concentrations (0, 0.05, 0.1, 0.5, 1 or 2 μM) of Doxorubicin. Experiments were performed in triplicate and the error bars in the graph show the standard deviation.
A drug screening setup was designed using the known anti-tumor drug Doxorubicin to assess tumor migration performance on the 3D cell culture model of the present disclosure. The plasma-treated PLA electrospun mats seeded with fibroblasts and tumor cells on A1G7 hydrogel on top, were loaded with various concentrations of Doxorubicin (0, 0.05, 0.1, 0.5, 1 and 2 μM) in triplicate, and tumor migration assessment was performed at day 7 of cell culture. […] The experiment was done in triplicate and the error bars presented in the chart are based on standard deviation.

The next assay relates to fibroblasts. Description: Drug screening test: stromal cells on nanofibrous PLA scaffolds of the 3D cell culture model. The settings on record: 0-2 μM; day 7; relative to samples from previous experiment without drug. As to the method:
A drug screening setup was designed using the known anti-tumor drug Doxorubicin to assess tumor migration performance on the 3D cell culture model of the present disclosure. The plasma-treated PLA electrospun mats seeded with fibroblasts and tumor cells on […] hydrogel on top, were loaded with various concentrations of Doxorubicin (0, 0.05, 0.1, 0.5, 1 and 2 μM) in triplicate, and tumor migration assessment was performed at day 7 of cell culture. […] The experiment was done in triplicate and the error bars presented in the chart are based on standard deviation.

For assay [1], the system named is bone metastases prostate (BMP4) patient-derived tumor cells. Briefly: Drug screening test: tumor migration on PP-EL plasma-coated PLA electrospun mats with patient-derived tumor cells. The following applies: 0, 0.05, 0.1 and 0.5 μM, day 7 of cell culture, A1G7 hydrogel, triplicate. As to the method: FIG. 12C is a graph showing the measurement of the number of BMP4 tumor cells migrated to the surface of PP-EL plasma-treated PLA mats at different concentrations (0, 0.05, 0.1, or 0.5 μM) of Doxorubicin. Experiments were performed in triplicate and the error bars in the graph show the standard deviation.
The 3D cell culture system according to the present disclosure was also used to perform a doxorubicin screening tested with tumor cells derived from patients (bone metastases prostate (BMP4) patient-derived tumor cells) and a breast tumor cell line (MBA-MB231) in A1G7 hydrogel. In this experiment, the PLA scaffolds were coated with PP-EL, ethyl lactate (EL) plasma coating in atmospheric pressure, and captured at day 7 after culture. The results depicted in FIG. 12A indicate a significant difference in the appearance of primary BMP4 tumor cells and commercial tumor cell line in the images. The pictures show the 3D stack of the total mat layers (certain thickness) obtained by signal from cells.
The PP-EL plasma-coated PLA electrospun mats seeded with BMP4 tumor cells on A1G7 hydrogel on top, were loaded with various concentrations of Doxorubicin (0, 0.05, 0.1 and 0.5 μM) in triplicate, and tumor migration assessment was performed at day 7 of cell culture.

Molecules are shown by their SMILES.

Turning to `COc1cccc2c1C(=O)c1c(O)c3c(c(O)c1C2=O)C[C@@](O)(C(=O)CO)C[C@@H]3O[C@H]1C[C@H](N)[C@H](O)[C@H](C)O1` [Doxorubicin], the “number of breast cancer cells that were able to migrate to the surface of scaffolds” value in the assay on breast cancer cells was “significant reduction”. In addition, the “number of stromal cells (fibroblasts) on nanofibrous scaffolds” value in the assay with fibroblasts is “reduced number of stromal cells”. In assay [1], the “BMP4 tumor cells migration” value is “dose-dependent inhibition”.
